From publication PMC9865020, “Identification of Novel Small Molecule Ligands for JAK2 Pseudokinase Domain” (Pharmaceuticals, 2023)
Like-named read-outs stand apart in the source and are kept apart here.

Legend:
[1] = molecular target: JAK1 JH1 D1003N (Homo sapiens, UniProt P23458, D1003N); experiment: More sensitive FP binding assay, Bodipy FL-labeled JNJ-7706621 tracer
[2] = molecular target: JAK1 JH2 (Homo sapiens, UniProt P23458); experiment: as above
[3] = system: HEL cells; experiment: alamarBlue cell viability assay; assay type: cell-based; details: Homo sapiens, 48 h, read-out: Cell Viability IC50 HEL
[4] = system: SET-2 cells; experiment: alamarBlue cell viability assay; assay type: cell-based; details: Homo sapiens, read-out: Cell Viability IC50 SET-2
[5] = molecular target: T1, JAK2 JH2 wild-type (Homo sapiens, UniProt O60674); experiment: Fluorescence polarization binding assay, Bodipy FL-ATP tracer; details: for IC50 / inhibition at 100 µM: FP, Bodipy FL-ATP tracer; for IC50: average ± standard deviation, lower detection limit 3.5 µM, read-out: IC50 of tracer binding to JAK2 JH2 wt; for inhibition at 100 µM: 100 µM analog concentration
T1 construct: Human JAK2 JH2 (503-827); hexa histidine-tag (C); made in house; host or cells: High Five or Sf9 insect cells

[6] = molecular target: JAK2 JH1 D976N (Homo sapiens, UniProt O60674, D976N); experiment: as above; details: for inhibition at 100 µM: read-out: inhibition-% of tracer binding to JAK2 JH1
[7] = molecular target: JAK2 JH2 V617F (Homo sapiens, UniProt O60674, V617F); experiment: as above; set-up: Hyperactive mutation V617F in the JAK2 regulatory pseudokinase domain (JH2); His tag (C); made in house; host or cells: High Five or Sf9 insect cells; details: for IC50: FP, Bodipy FL-ATP tracer, lower detection limit of assay 3.5 µM, read-out: IC50 value for binding against JAK2 JH2 V617F
[8] = system: Ba/F3-hJAK2 wildtype cells; experiment: alamarBlue cell viability assay; assay type: cell-based, murine; details: Mus musculus, 48 h, n=3, read-out: Cell viability IC50 Ba/F3-hJAK2 wt
[9] = system: Ba/F3 hJAK2 V617F cells; experiment: alamarBlue cell viability assay; assay type: cell-based, murine; details: Mus musculus, BaF3, 48 h, n=3

JAK2 JH2 V617F, sequence (O60674 545-809 V617F limits assumed): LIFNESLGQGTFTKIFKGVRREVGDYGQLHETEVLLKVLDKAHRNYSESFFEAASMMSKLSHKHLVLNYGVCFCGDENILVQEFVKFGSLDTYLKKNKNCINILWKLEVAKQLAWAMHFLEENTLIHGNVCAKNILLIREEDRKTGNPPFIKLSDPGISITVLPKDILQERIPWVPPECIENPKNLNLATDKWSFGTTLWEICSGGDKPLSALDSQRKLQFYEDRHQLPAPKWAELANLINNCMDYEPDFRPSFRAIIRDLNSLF
T1 sequence (O60674 503-827): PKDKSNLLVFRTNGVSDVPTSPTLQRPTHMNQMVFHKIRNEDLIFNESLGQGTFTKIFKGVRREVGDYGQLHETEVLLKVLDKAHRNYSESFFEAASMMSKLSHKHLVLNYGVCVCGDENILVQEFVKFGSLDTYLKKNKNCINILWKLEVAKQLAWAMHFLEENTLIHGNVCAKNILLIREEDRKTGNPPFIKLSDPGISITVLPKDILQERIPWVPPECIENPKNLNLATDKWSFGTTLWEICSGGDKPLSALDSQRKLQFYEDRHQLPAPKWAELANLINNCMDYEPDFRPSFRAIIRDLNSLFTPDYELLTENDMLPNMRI
JAK2 JH1 D976N, sequence (O60674 836-1132 D976N): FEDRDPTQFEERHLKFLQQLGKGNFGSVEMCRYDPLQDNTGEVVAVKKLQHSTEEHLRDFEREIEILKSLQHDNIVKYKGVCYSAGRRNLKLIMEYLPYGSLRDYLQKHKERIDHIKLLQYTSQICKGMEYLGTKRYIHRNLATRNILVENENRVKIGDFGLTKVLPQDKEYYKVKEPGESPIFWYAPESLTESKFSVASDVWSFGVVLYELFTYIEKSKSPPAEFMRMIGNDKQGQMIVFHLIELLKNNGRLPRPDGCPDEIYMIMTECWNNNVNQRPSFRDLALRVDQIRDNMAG
JAK1 JH1 D1003N, sequence (P23458 866-1154 D1003N): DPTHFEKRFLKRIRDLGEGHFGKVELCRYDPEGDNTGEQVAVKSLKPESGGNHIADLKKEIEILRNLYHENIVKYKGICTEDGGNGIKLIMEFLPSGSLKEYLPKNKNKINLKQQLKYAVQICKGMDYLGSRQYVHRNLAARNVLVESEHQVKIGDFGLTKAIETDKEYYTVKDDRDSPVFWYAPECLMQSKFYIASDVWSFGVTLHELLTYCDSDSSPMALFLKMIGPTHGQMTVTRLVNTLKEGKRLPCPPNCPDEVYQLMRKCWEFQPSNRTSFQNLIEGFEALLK
JAK1 JH2, sequence (P23458 553-836): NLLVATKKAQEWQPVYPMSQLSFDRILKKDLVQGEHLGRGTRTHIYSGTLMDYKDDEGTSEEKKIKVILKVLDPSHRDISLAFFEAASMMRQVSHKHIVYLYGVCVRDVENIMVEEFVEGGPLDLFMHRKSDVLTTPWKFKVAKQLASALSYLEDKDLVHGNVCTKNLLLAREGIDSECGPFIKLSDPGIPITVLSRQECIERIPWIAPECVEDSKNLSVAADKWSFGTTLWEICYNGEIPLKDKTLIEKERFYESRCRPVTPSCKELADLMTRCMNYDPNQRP

Q: `O=C(Nc1c[nH]nc1-c1nc2ccc(CN3CCOCC3)cc2[nH]1)NC1CC1` [Compound 2, AT9283, reference compound] was tested. Which IC50 [1] did it give?
A: 0.06 µM

Q: What about the IC50 [2] of the same compound?
A: 0.11 µM

Q: What about the IC50 ([3]; HEL) of the same compound?
A: 1.3 µM

Q: And the IC50 ([4]; SET-2, 48 h)?
A: 0.54 µM

Q: With `Nc1nc(Nc2ccc(S(N)(=O)=O)cc2)nn1C(=S)Nc1c(F)cccc1F` [Compound 3, Cdk1/2 inhibitor III, reference compound] as the compound, how does the IC50 [5] read?
A: ≤ 3.5 µM

Q: And the IC50 [6]?
A: ≤ 3.5 µM

Q: What about the IC50 [7] of the same compound?
A: ≤ 3.5 µM

Q: For `CN(Cc1nc(N)nc(Nc2ccccc2)n1)Cc1ccc(Br)s1` [Compound 5], which inhibition at 100 µM [5] is on record?
A: 60%

Q: And the IC50 [5]?
A: 95 ± 12 µM

Q: What about the inhibition at 100 µM [6] of the same compound?
A: 5%

Q: And the IC50 [7]?
A: 91 µM

Q: Which IC50 [5] does the source give for `CCN(CC)C(=O)c1ccc(Nc2nc(OCC3CCCCC3)c3nc[nH]c3n2)cc1` [Compound 6, Cdk2 inhibitor IV, reference compound] here?
A: ≤ 3.5 µM

Q: And the IC50 [6]?
A: ≤ 3.5 µM

Q: And the IC50 [7]?
A: ≤ 3.5 µM

Q: For `c1nc2nc(Nc3ccc(N4CCOCC4)cc3)nc(NC3CCCCC3)c2[nH]1` [Compound 7, Reversine, reference compound], which IC50 [8] is on record?
A: 0.38 µM

Q: What about the IC50 [9] of the same compound?
A: 0.48 µM

Q: What about the IC50 [1] of the same compound?
A: 0.35 µM

Q: What about the IC50 [2] of the same compound?
A: 0.15 µM

Q: What about the IC50 ([3]; HEL (JAK2 V617F homozygous), alamarBlue, upper detection limit 40 µM) of the same compound?
A: 9.3 µM

Q: And the IC50 ([4]; SET-2 (JAK2 V617F heterozygous), 48 h, alamarBlue, upper detection limit 40 µM)?
A: 4 µM

Q: For `COC(=O)c1ccc(Nc2[nH]cnc3ncnc2-3)cc1` [Compound 8], which IC50 [5] is on record?
A: 100 ± 22 µM

Q: What about the IC50 [7] of the same compound?
A: 123 µM

Q: Which results are given for `c1ccc(COc2ccc(Nc3ncnc4nc[nH]c34)cc2)cc1` [Compound 9]?
A: IC50 [5]: 774 ± 64 µM; IC50 [7]: 255 µM

Q: Which IC50 [5] does the source give for `COc1cc(/C=N/Nc2ncnc3[nH]cnc23)cc(Br)c1O` [Compound 10] here?
A: 82 ± 28 µM

Q: What about the IC50 [7] of the same compound?
A: 155 µM

Q: For `Fc1cccc(/C=N/Nc2[nH]cnc3ncnc2-3)c1` [Compound 11], which IC50 [5] is on record?
A: 192 ± 41 µM

Q: What about the IC50 [7] of the same compound?
A: 188 µM

Q: With `Oc1cccc(/C=N/Nc2ncnc3[nH]cnc23)c1` [Compound 12] as the compound, how does the IC50 [5] read?
A: 164 ± 11 µM

Q: And the IC50 [7]?
A: 263 µM

Q: For `COc1ccc(-c2c(C(F)(F)F)nn3c(=O)cc(-c4cccc([N+](=O)[O-])c4)[nH]c23)cc1` [Compound 13], which inhibition at 100 µM [5] is on record?
A: 85%

Q: And the IC50 [5]?
A: 55 ± 5 µM

Q: And the inhibition at 100 µM [6]?
A: 15%

Q: And the IC50 [7]?
A: 59 µM

Q: How did the IC50 [5] turn out when `Cc1cc(Nc2cc(CN3CCOCC3)c3nc(C)c(Cc4ccc(Cl)cc4F)n3n2)n[nH]1` [Compound 14, Gandotinib, reference compound] was run?
A: 213 ± 63 µM

Q: And the IC50 [7]?
A: 142 µM

Q: With `Nc1nc(Nc2ccc3c(c2)CC[C@@H](N2CCCC2)CC3)nn1-c1cc2c(nn1)-c1ccccc1CCC2` [Compound 16] as the compound, how does the inhibition at 100 µM [5] read?
A: 79%

Q: What about the inhibition at 100 µM [6] of the same compound?
A: 86%

Q: What does the source list for `COc1ccc(Nc2nc(N)n[nH]2)cc1` [Compound 17]?
A: inhibition at 100 µM [5]: 40%; inhibition at 100 µM [6]: 21%

Q: Which results are given for `Nc1nc(Nc2ccc(Cl)cc2)n[nH]1` [Compound 20]?
A: inhibition at 100 µM [5]: 55%; inhibition at 100 µM [6]: 19%

Q: What does the source list for `Nc1nc(Nc2ccccc2)n[nH]1` [Compound 21]?
A: inhibition at 100 µM [5]: 45%; inhibition at 100 µM [6]: 27%

Q: What does the source list for `COc1ccc(CNc2n[nH]c(N)n2)cc1` [Compound 22]?
A: inhibition at 100 µM [5]: 1%; inhibition at 100 µM [6]: 10%

Q: How did the inhibition at 100 µM [5] turn out when `Cc1ccc(Nc2nc(N)nc(CN(C)Cc3ccc(Br)s3)n2)cc1` [Compound 23] was run?
A: 66%

Q: And the inhibition at 100 µM [6]?
A: 0%

Q: How did the inhibition at 100 µM [5] turn out when `CSc1ccc(CN(C)Cc2nc(N)nc(Nc3ccccc3)n2)cc1` [Compound 25] was run?
A: 62%

Q: And the inhibition at 100 µM [6]?
A: 7%

Q: Which inhibition at 100 µM [5] does the source give for `COc1ccc(CN(C)Cc2nc(N)nc(Nc3ccccc3)n2)cc1F` [Compound 26] here?
A: 56%

Q: And the inhibition at 100 µM [6]?
A: 0%

Q: How did the inhibition at 100 µM [5] turn out when `Nc1nc(CN2CCCC2c2cccs2)nc(Nc2ccccc2)n1` (centres unmarked) [Compound 27] was run?
A: 62%

Q: What about the inhibition at 100 µM [6] of the same compound?
A: 0%

Q: Which results are given for `CN(Cc1nc(N)nc(Nc2ccccc2)n1)Cc1cccc(Cl)c1Cl` [Compound 28]?
A: inhibition at 100 µM [5]: 69%; inhibition at 100 µM [6]: 4%

Q: How did the inhibition at 100 µM [5] turn out when `Nc1nc(COC(=O)c2ccoc2)nc(Nc2ccccc2)n1` [Compound 29] was run?
A: 31%

Q: What about the inhibition at 100 µM [6] of the same compound?
A: 3%

Q: For `CC(Sc1ccccc1F)c1nc(N)nc(Nc2ccccc2)n1` (centres unmarked) [Compound 30], which inhibition at 100 µM [5] is on record?
A: 57%

Q: What about the inhibition at 100 µM [6] of the same compound?
A: 31%

Q: Which results are given for `Nc1nc(CSCCn2cccn2)nc(Nc2ccccc2)n1` [Compound 31]?
A: inhibition at 100 µM [5]: 37%; inhibition at 100 µM [6]: 11%

Q: With `Nc1nc(CSCc2ccc(F)cc2)nc(Nc2ccccc2)n1` [Compound 32] as the compound, how does the inhibition at 100 µM [5] read?
A: 56%

Q: And the inhibition at 100 µM [6]?
A: 18%

Q: Which results are given for `Cc1ccc(Nc2nc(N)nc(-c3ccccc3)n2)cc1` [Compound 33]?
A: inhibition at 100 µM [5]: 30%; inhibition at 100 µM [6]: 40%

Q: Which results are given for `COc1ccc(-c2c(C(F)(F)F)nn3c(=O)cc(-c4ccccc4)[nH]c23)cc1` [Compound 35]?
A: inhibition at 100 µM [5]: 71%; inhibition at 100 µM [6]: 10%

Q: `COc1ccc(-c2c(C)[nH]n3c(=O)cc(-c4ccc([N+](=O)[O-])cc4)nc23)cc1` [Compound 37] was tested. Which inhibition at 100 µM [5] did it give?
A: 1%

Q: What about the inhibition at 100 µM [6] of the same compound?
A: 1%

Q: `COc1ccc(-c2c(Cc3ccccc3)[nH]n3c(=O)cc(-c4ccc([N+](=O)[O-])cc4)nc23)cc1` [Compound 38] was tested. Which inhibition at 100 µM [5] did it give?
A: 0%

Q: What about the inhibition at 100 µM [6] of the same compound?
A: 0%

Q: With `COC(=O)Cc1cc(=O)n2nc(C(F)(F)F)c(-c3ccc(OC)cc3)c2[nH]1` [Compound 39] as the compound, how does the inhibition at 100 µM [5] read?
A: 0%

Q: What about the inhibition at 100 µM [6] of the same compound?
A: 13%

Q: How did the inhibition at 100 µM [5] turn out when `CCCc1cc(=O)n2nc(C(F)(F)F)c(-c3ccccc3)c2[nH]1` [Compound 40] was run?
A: 8%

Q: And the inhibition at 100 µM [6]?
A: 8%

Q: For `Cc1cc(=O)n2[nH]c(C(F)(F)F)c(-c3ccccc3)c2n1` [Compound 41], which inhibition at 100 µM [5] is on record?
A: 6%

Q: And the inhibition at 100 µM [6]?
A: 34%

Q: How did the inhibition at 100 µM [5] turn out when `CC(C)(C)c1cc(=O)n2nc(C(F)(F)F)c(-c3ccccc3)c2[nH]1` [Compound 42] was run?
A: 18%

Q: What about the inhibition at 100 µM [6] of the same compound?
A: 27%

Q: For Bodipy FL-ATP [reference compound], which Kd ([5]; in the FP assay conditions, read-out: protein-tracer binding affinity, JAK2 JH2 WT) is on record?
A: 9 µM

Q: And the Kd ([6]; read-out: protein-tracer binding affinity, JAK2 JH1, in the FP assay conditions)?
A: 5 µM

Q: And the Kd ([7]; in the FP assay conditions, read-out: protein-tracer binding affinity, JAK2 JH2 V617F)?
A: 7 µM
